One may read the IC50 as the point on the concentration scale where inhibition reaches its midpoint.

In US5364931A (Bayer Aktiengesellschaft, priority 1990, dated 1994) one finds IC50 data, which are given here for five molecules.

In one experiment the target is T1, HIV protease (Human immunodeficiency virus type 1 group M subtype B, UniProt P04585).
T1 construct: purified HIV protease was incubated with synthetic peptide
In words: HIV-specific protease enzyme test (RP-HPLC), compounds of formula (I). Type of experiment: biochemical. To be noted: purified HIV protease, synthetic Gag cleavage-site peptide, compounds of general formula (I). The protocol:
(§1) The results for the examples listed below were determined by the HIV test system described in the following literature reports [cf. Hansen, J., Billich, S., Schulze, T. Sukrow, S. and Molling, K. (1988), EMBO Journal, Vol. 7, No. 6, pages 1785-1791]: purified HIV protease was incubated with synthetic peptide which imitates a cleavage site in the Gag precursor protein and represents an in vivo cleavage site of the HIV protease. The resulting cleavage products of the synthetic peptide were analysed by means of reverse phase high performance liquid chromatography (RP-HPLC). The IC50 values given relate to the substance concentration which causes a 50% inhibition of protease activity under the abovementioned test conditions.

The target in the next experiment is T2, HIV-1 protease (Human immunodeficiency virus type 1 group M subtype B, UniProt P04585).
T2 construct: purified HIV protease was incubated with synthetic peptide
Nature of the experiment: HIV-specific protease enzyme test (RP-HPLC), HIV-1. In kind it is biochemical. How it is done: as §1

A further experiment concerns the target T3, HIV-2 protease (Human immunodeficiency virus type 2 subtype A, UniProt P04584).
T3 construct: purified HIV protease was incubated with synthetic peptide
Nature of the experiment: HIV-specific protease enzyme test (RP-HPLC), HIV-2. Type of experiment: biochemical. Particulars: compounds of general formula (VIa). How it is done:
as §1

A further experiment has as its target HIV-I protease (Human immunodeficiency virus type 1 group M subtype B, UniProt P04585). Particulars: read-out: IC50 (inactivation of HIV-I protease); cited from earlier work.

T3 sequence (P04584 514-612 limits assumed): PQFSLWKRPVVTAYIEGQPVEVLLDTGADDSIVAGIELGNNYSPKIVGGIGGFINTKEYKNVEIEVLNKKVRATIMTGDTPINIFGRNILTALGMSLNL

In turn, `CCOP(=O)(OCC)C1CCCN1C[C@H](O)[C@H](CC1CCCCC1)NC(=O)OC(C)(C)C` (mixture of isomers) [5 (polar), Diethyl 1-{(2S, 3S)-3-[(tert-butoxycarbonyl)-amino]-4-cyclohexyl-2-hydroxy-butyl}-(2R and 2S)-2 (pyrrolidinyl)-phosphonate] had a half-maximal inhibitory concentration (IC50) at HIV protease of 100 nM.

As to `CC(C)[C@H](NC(=O)[C@H](Cc1ccccc1)NC(=O)CC(C)(C)C)C(=O)N[C@@H](Cc1ccccc1)C1CO1` (stereo partly drawn) [Example 46], the IC50 at HIV-1 protease stood at 5 nM; against HIV-2 protease, 10 nM.

On HIV protease, `CCOP(=O)(OCC)C1CCCN1C[C@H](O)[C@H](CC1CCCCC1)NC(=O)OC(C)(C)C` (mixture of isomers) [5 (non-polar), Diethyl 1-{(2S, 3S)-3-[(tert-butoxycarbonyl)-amino]-4-cyclohexyl-2-hydroxy-butyl}-(2R and 2S)-2 (pyrrolidinyl)-phosphonate] yielded an IC50 of 1000 nM.

On HIV protease, “Diethyl 1-{(3S, 4S)-4-[(2S)-3-(tert-butylsulphonyl)-2-(1-naphthylmethyl)propanoyl]valinylamino]-5-cyclohexyl-3-hydroxy-pentanoyl}-(2R or 2S)-2-(pyrrolidinyl)phosphonate [26 (polar)]” yielded an IC50 of 100 nM.

Turning to `O=[N+]([O-])c1ccc(OCC2CO2)cc1` (stereo not drawn) [EPNP, 1,2-epoxy-3-(4-nitrophenoxy)propane], at HIV-I protease, the IC50 was 450000 nM.
